Paper PMC7413254 (Nature Communications, 2020)
Where two headings read alike, the source gives them in different places.

Key:
[1] = test system: non-expressing oocytes; assay type: cell-based, Xenopus laevis; details: non-expressing oocytes, total [3H]CQ transport, normalised to the oocyte type control
In short: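 Oocytes (ten per treatment, ≥4 independent frogs/days) were preloaded by injecting VF-6 in 25 nL ND96 at pH 5.0, 5.5, 6.0 or 7.0, or Na^+-free choline buffer, then uptake run 1.5 h, 27.5 °C, ND96 pH 5.5 by default. Internal concentrations assumed ~400 nL oocyte volume.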

[2] = biological target: T1, PfCRT^Dd2 (Plasmodium falciparum, UniProt Q9N623, A220S/I356T/K76T/M74I/N326S/N75E/Q271E/R371I); assay: cell-based; assay type: cell-based; details: for Uptake of [3H]CQ (% PfCRTDd2 control), trans-stimulation / PfCRT-mediated [3H]CQ transport, trans-stimulation (% PfCRTDd2 control): PfCRTDd2 oocytes; for Uptake of [3H]CQ (% PfCRTDd2 control), trans-stimulation: total [3H]CQ transport, normalised to the oocyte type control; for PfCRT-mediated [3H]CQ transport, trans-stimulation (% PfCRTDd2 control): normalised to oocyte type control; for [3H]CQ transport (% PfCRTDd2 control), trans-stimulation, PfCRTDd2: PfCRT-mediated component (background subtracted), mean ± SEM, SEM
In short: (§1)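 Transport measured in Xenopus oocytes expressing the transporters, 1.5 h at 27.5 °C in ND96 pH 5.5 unless noted. For trans-stimulation, VF-6 injected in 25 nL ND96 at pH 5.0–7.0 or Na^+-free (choline) buffer; intracellular levels based on ~400 nL oocyte volume. Ten oocytes per treatment, ≥4 experiments.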

[3] = biological target: T2, PfCRT^3D7 (Plasmodium falciparum, UniProt Q8IBZ9); assay: cell-based; assay type: cell-based; details: PfCRT3D7 oocytes; for Uptake of [3H]CQ (% PfCRT3D7 control), trans-stimulation: total [3H]CQ transport, normalised to the oocyte type control; for PfCRT-mediated [3H]CQ transport, trans-stimulation (% PfCRT3D7 control): normalised to oocyte type control
In short: as §1

[4] = biological target: T3, PfNT1 (Plasmodium falciparum, UniProt Q8IDM6); assay: cell-based; assay type: cell-based; details: PfNT1 oocytes, total [3H]CQ transport, normalised to the oocyte type control
T3 construct: expressed in transfected cells; host or cells: Xenopus laevis oocytes (stage V-VI), cRNA-injected
In short: as §1

[5] = biological target: T4, PfCRT^Ecu1110 (Plasmodium falciparum, UniProt Q9N623, A220S/I356L/K76T/N326D); assay: cell-based; assay type: cell-based; details: for Uptake of [3H]CQ (% PfCRTEcu1110 control), trans-stimulation / PfCRT-mediated [3H]CQ transport, trans-stimulation (% PfCRTEcu1110 control): PfCRTEcu1110 oocytes; for Uptake of [3H]CQ (% PfCRTEcu1110 control), trans-stimulation: total [3H]CQ transport, normalised to the oocyte type control; for PfCRT-mediated [3H]CQ transport, trans-stimulation (% PfCRTEcu1110 control): normalised to oocyte type control; for [3H]CQ transport (% PfCRTDd2 control), trans-stimulation, PfCRTEcu1110: PfCRT-mediated component (background subtracted), sheet title says normalised to PfCRTDd2 control, mean ± SEM, SEM
In short: as §1

[6] = biological target: T2, PfCRT^3D7; assay: cell-based; assay type: cell-based; details: PfCRT3D7 oocytes, total [3H]CQ transport, normalised to the oocyte type control
In short: (§2)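 PfCRT-expressing and control oocytes: ND96 pH 5.5 → 1.5 h at 27.5 °C → ice-cold ND96 wash → 10% SDS lysis → scintillation count.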

[7] = biological target: T1, PfCRT^Dd2; assay: [3H]CQ uptake into Xenopus oocytes, cis-inhibition by unlabelled solute; assay type: cell-based; details: PfCRTDd2 oocytes, background [3H]CQ accumulation subtracted, normalised to oocyte type control
In short: as §2

[8] = biological target: T4, PfCRT^Ecu1110; assay: as above; assay type: cell-based; details: for Uptake of [3H]CQ (% PfCRTEcu1110 control), cis-inhibition / PfCRT-mediated [3H]CQ transport, cis-inhibition (% PfCRTEcu1110 control): PfCRTEcu1110 oocytes; for Uptake of [3H]CQ (% PfCRTEcu1110 control), cis-inhibition: total [3H]CQ transport, normalised to the oocyte type control; for PfCRT-mediated [3H]CQ transport, cis-inhibition (% PfCRTEcu1110 control): background [3H]CQ accumulation subtracted, normalised to oocyte type control; for [3H]CQ transport (% PfCRTEcu1110 control), cis-inhibition, PfCRTEcu1110: PfCRT-mediated component (background subtracted), sheet title says normalised to PfCRTDd2 control, mean ± SEM, SEM
In short: as §2

[9] = test system: non-expressing oocytes; assay: cells; assay type: cell-based, Xenopus laevis; details: non-expressing oocytes, total [3H]CQ transport, normalised to the oocyte type control
In short: as §2

[10] = [test solute]i = 45 mM (30 mM for some solutes due to solubility)
[11] = [test solute]i = 5 mM (intracellular)
[12] = [test solute]i = 45 mM (intracellular; 30 mM for some solutes due to solubility)
[13] = [test solute]i = 5 mM (injected)

T2 sequence (Q8IBZ9 59-398): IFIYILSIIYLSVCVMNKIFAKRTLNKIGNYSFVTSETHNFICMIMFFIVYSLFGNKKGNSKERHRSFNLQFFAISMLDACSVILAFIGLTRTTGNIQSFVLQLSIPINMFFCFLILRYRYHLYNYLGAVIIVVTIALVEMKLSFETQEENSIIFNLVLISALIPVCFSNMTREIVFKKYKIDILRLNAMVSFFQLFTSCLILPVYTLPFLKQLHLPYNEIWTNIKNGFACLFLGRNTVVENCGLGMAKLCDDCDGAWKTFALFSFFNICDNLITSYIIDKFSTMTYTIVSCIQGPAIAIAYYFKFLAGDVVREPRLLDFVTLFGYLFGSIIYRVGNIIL
T4 sequence (Q9N623 whole entry A220S/I356L/K76T/N326D): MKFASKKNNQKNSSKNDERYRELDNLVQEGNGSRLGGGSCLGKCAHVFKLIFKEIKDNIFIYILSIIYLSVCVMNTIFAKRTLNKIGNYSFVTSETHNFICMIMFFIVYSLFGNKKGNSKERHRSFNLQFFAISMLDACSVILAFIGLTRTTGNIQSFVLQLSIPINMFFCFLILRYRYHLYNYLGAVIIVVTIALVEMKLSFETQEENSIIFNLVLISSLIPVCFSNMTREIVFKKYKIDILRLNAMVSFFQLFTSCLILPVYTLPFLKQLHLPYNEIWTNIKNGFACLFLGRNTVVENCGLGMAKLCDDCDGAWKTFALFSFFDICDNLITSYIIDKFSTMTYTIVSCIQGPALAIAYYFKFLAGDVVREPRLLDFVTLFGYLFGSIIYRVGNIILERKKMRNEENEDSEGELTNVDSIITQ
T1 sequence (Q9N623 whole entry A220S/I356T/K76T/M74I/N326S/N75E/Q271E/R371I): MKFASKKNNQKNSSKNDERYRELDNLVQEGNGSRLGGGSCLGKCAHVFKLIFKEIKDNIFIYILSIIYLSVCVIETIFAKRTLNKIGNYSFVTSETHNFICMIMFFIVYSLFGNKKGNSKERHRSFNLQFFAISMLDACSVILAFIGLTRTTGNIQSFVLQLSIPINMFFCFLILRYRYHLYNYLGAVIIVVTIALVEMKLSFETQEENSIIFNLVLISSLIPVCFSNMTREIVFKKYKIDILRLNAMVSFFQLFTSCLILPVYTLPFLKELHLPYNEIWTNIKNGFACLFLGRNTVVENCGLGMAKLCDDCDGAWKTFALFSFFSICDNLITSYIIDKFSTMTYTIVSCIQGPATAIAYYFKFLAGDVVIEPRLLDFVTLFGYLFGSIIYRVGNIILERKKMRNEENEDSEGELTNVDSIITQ
T3 sequence (Q8IDM6 whole entry): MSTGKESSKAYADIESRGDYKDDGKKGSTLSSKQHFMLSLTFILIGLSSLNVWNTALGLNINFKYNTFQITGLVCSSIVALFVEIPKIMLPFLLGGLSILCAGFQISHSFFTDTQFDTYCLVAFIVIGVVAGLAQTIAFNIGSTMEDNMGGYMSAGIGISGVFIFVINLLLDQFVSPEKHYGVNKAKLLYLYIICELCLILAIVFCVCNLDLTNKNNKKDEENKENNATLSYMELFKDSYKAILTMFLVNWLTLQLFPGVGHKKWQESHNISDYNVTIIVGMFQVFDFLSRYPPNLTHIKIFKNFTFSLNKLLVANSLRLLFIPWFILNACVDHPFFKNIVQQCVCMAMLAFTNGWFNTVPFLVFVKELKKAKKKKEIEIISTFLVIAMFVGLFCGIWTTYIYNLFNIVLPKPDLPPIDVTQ

## DPVN [DN-4]
[1]; [test solute]i = 5 mM
  Uptake of [3H]CQ (% non-expressing oocyte control), trans-stimulation: 99 ± 4.8 % non-expressing oocyte control
[1]; [10]
  Uptake of [3H]CQ (% non-expressing oocyte control), trans-stimulation: 99 ± 1.0 % non-expressing oocyte control
[2]; [test solute]i = 5 mM
  Uptake of [3H]CQ (% PfCRTDd2 control), trans-stimulation: 103 ± 1.1 % PfCRTDd2 control
[2]; [10]
  Uptake of [3H]CQ (% PfCRTDd2 control), trans-stimulation: 100 ± 3.8 % PfCRTDd2 control
  [3H]CQ transport (% PfCRTDd2 control), trans-stimulation, PfCRTDd2: 98 ± 3.9 % PfCRTDd2 control
[2]; [11]
  PfCRT-mediated [3H]CQ transport, trans-stimulation (% PfCRTDd2 control): 99 ± 4.1 % PfCRTDd2 control
[2]; [12]
  PfCRT-mediated [3H]CQ transport, trans-stimulation (% PfCRTDd2 control): 98 ± 3.9 % PfCRTDd2 control
[2]; [13]
  [3H]CQ transport (% PfCRTDd2 control), trans-stimulation, PfCRTDd2: 99 ± 4.1 % PfCRTDd2 control
[3]; [test solute]i = 5 mM
  Uptake of [3H]CQ (% PfCRT3D7 control), trans-stimulation: 121 ± 3.4 % PfCRT3D7 control
[3]; [10]
  Uptake of [3H]CQ (% PfCRT3D7 control), trans-stimulation: 153 ± 5.0 % PfCRT3D7 control
[3]; [11]
  PfCRT-mediated [3H]CQ transport, trans-stimulation (% PfCRT3D7 control): 116 ± 2.3 % PfCRT3D7 control
[3]; [12]
  PfCRT-mediated [3H]CQ transport, trans-stimulation (% PfCRT3D7 control): 147 ± 4.2 % PfCRT3D7 control
[4]; [test solute]i = 5 mM
  Uptake of [3H]CQ (% PfNT1 control), trans-stimulation: 100 ± 3.2 % PfNT1 control
[4]; [10]
  Uptake of [3H]CQ (% PfNT1 control), trans-stimulation: 99 ± 3.2 % PfNT1 control
[5]; [test solute]i = 5 mM
  Uptake of [3H]CQ (% PfCRTEcu1110 control), trans-stimulation: 105 ± 3.6 % PfCRTEcu1110 control
[5]; [10]
  Uptake of [3H]CQ (% PfCRTEcu1110 control), trans-stimulation: 100 ± 2.2 % PfCRTEcu1110 control
  [3H]CQ transport (% PfCRTDd2 control), trans-stimulation, PfCRTEcu1110: 30 ± 1.4 % PfCRTEcu1110 control
[5]; [11]
  PfCRT-mediated [3H]CQ transport, trans-stimulation (% PfCRTEcu1110 control): 102 ± 2.3 % PfCRTEcu1110 control
[5]; [12]
  PfCRT-mediated [3H]CQ transport, trans-stimulation (% PfCRTEcu1110 control): 98 ± 3.2 % PfCRTEcu1110 control
[5]; [13]
  [3H]CQ transport (% PfCRTDd2 control), trans-stimulation, PfCRTEcu1110: 31 ± 1.4 % PfCRTEcu1110 control
[6]; [test solute] = 0.5 mM
  Uptake of [3H]CQ (% PfCRT3D7 control), cis-inhibition: 100 ± 2.6 % PfCRT3D7 control
[6]; [test solute] = 1 mM
  Uptake of [3H]CQ (% PfCRT3D7 control), cis-inhibition: 100 ± 3.7 % PfCRT3D7 control
[6]; [test solute] = 2 mM
  Uptake of [3H]CQ (% PfCRT3D7 control), cis-inhibition: 100 ± 4.8 % PfCRT3D7 control
[7]; [test solute] = 0.5 mM
  PfCRT-mediated [3H]CQ transport, cis-inhibition (% PfCRTDd2 control): 63 ± 3.1 % PfCRTDd2 control
[7]; [test solute] = 1 mM
  PfCRT-mediated [3H]CQ transport, cis-inhibition (% PfCRTDd2 control): 47 ± 3.1 % PfCRTDd2 control
[7]; [test solute] = 2 mM
  PfCRT-mediated [3H]CQ transport, cis-inhibition (% PfCRTDd2 control): 42 ± 3.2 % PfCRTDd2 control
[8]; [test solute] = 0.5 mM
  Uptake of [3H]CQ (% PfCRTEcu1110 control), cis-inhibition: 73 ± 4.4 % PfCRTEcu1110 control
  [3H]CQ transport (% PfCRTEcu1110 control), cis-inhibition, PfCRTEcu1110: 21 ± 0.6 % PfCRTEcu1110 control
[8]; [test solute] = 1 mM
  Uptake of [3H]CQ (% PfCRTEcu1110 control), cis-inhibition: 66 ± 3.8 % PfCRTEcu1110 control
  PfCRT-mediated [3H]CQ transport, cis-inhibition (% PfCRTEcu1110 control): 61 ± 2.9 % PfCRTEcu1110 control
  [3H]CQ transport (% PfCRTEcu1110 control), cis-inhibition, PfCRTEcu1110: 19 ± 0.4 % PfCRTEcu1110 control
[8]; [test solute] = 2 mM
  Uptake of [3H]CQ (% PfCRTEcu1110 control), cis-inhibition: 52 ± 3.3 % PfCRTEcu1110 control
  PfCRT-mediated [3H]CQ transport, cis-inhibition (% PfCRTEcu1110 control): 48 ± 2.4 % PfCRTEcu1110 control
  [3H]CQ transport (% PfCRTEcu1110 control), cis-inhibition, PfCRTEcu1110: 15 ± 0.1 % PfCRTEcu1110 control
[9]; [test solute] = 0.5 mM
  Uptake of [3H]CQ (% non-expressing oocyte control), cis-inhibition: 98 ± 4.6 % non-expressing oocyte control
[9]; [test solute] = 1 mM
  Uptake of [3H]CQ (% non-expressing oocyte control), cis-inhibition: 99 ± 4.7 % non-expressing oocyte control
[9]; [test solute] = 2 mM
  Uptake of [3H]CQ (% non-expressing oocyte control), cis-inhibition: 99 ± 3.7 % non-expressing oocyte control
